For assay [1], the target named is T1, thymidine phosphorylase (TP) (Escherichia coli, UniProt P07650).
T1 construct: purchased Sigma Aldrich, USA; host or cells: E. coli
The assay can be described thus: Thymidine phosphorylase inhibition assay (spectrophotometric, 290 nm). Format: biochemical, E. coli. As to conditions: for inhibition at 500 µM (stock): 10 μL of test compound (0.5 mM in dimethylsulfoxide) per well, read-out: Percent Inhibition of thymidine phosphorylase; for inhibition at 500 µM (stock) / inhibition: <50% regarded inactive; for inhibition: read-out: Percent Inhibition of thymidine phosphorylase, 10 μL of test compound (0.5 mM in dimethylsulfoxide) per well. As for the experimental part:
Since human TP is not commercially available, we used commercially available recombinant TP (expressed in E. coli) enzyme. Primary sequence of TP is mostly conserved throughout the evolution and mammalian TP share 39% sequence similarity with TP of E. coli. The mammalian enzyme also shares 65–70% similarity with the active site residues of E. coli TP enzyme.
Assay for TP inhibition was performed spectrophotometrically, following the method of Bera et al. with some modifications. Enzyme TP catalyzed the reversible phosphorolysis of thymidine to thymine and 2-deoxyribose-1-phosphate. Reaction mixture contained 150 μL of potassium phosphate buffer (pH 7.0, 50 mM), 20 μL of enzyme (0.058 U/well), and 10 μL of test compound (0.5 mM in dimethylsulfoxide). The reaction mixture was incubated for 10 min at 30°C. 20 μL of substrate (1.5 mM) was then added and change in absorbance was recorded after every minute for a total time period of 10 minutes at 290 nm in ELISA plate reader (Spectra Max-340, Molecular Devices, CA, USA).
We have used the 96-well UV-plates, purchased from Corning (Catalogue No. COSTAR 3635, Lot No. 00912050). […] We then added the substrate (thymidine), and recorded the final readings.

The target in assay [2] is T1, thymidine phosphorylase (TP). The experiment in a line: Kinetic studies on thymidine phosphorylase (Lineweaver-Burk, secondary re-plot, Dixon plot). Format: biochemical, E. coli. As to conditions: from Lineweaver-Burk plot; thymidine as variable substrate. The procedure: Kinetic studies were carried out to identify the mechanism of inhibition by these compounds. Inhibitor could bind with the enzyme in multiple ways, such as in competitive, non-competitive, mixed or uncompetitive way. In kinetic assay, the enzyme (0.058 U/200 μL) was incubated with different concentrations of inhibitor for 10 min at 30°C. The reaction was then initiated by adding different concentrations (0.1875–1.5 mM) of substrate (thymidine), and the resulting degradation of thymidine was measured continuously at 290 nm for 10 min on ELISA plate reader. Every experiment was run in triplicate.
Lineweaver-Burk plot was plotted to determine the type of inhibition. This was accomplished by plotting the reciprocal of the rate of reaction against the reciprocal of the substrate concentration. Ki values were determined by secondary re-plot of Lineweaver-Burk plot, and reconfirmed by Dixon plot.

The test system of assay [3] is mouse fibroblast (3T3) cells. The experiment in a line: MTT anti-proliferative (cytotoxicity) assay, 3T3 cells. Format: cell-based. Particulars: mouse fibroblast normal cell line, read-out: IC50 ± Standard Deviation, 3T3 Cell Line. The procedure: (§1) Anti-proliferative activity of active compounds was evaluated by using the standard MTT (3-[4,5-dimethylthiazole-2-yl]-2,5-diphenyl-tetrazolium bromide) colorimetric assay in 96-well plate.
(§2) It is a colorimetric assay that measures the reduction of MTT by mitochondrial enzyme i.e. succinate dehydrogenase. The MTT enters into the mitochondria of cell, where it is reduced to an insoluble formazan salt. As reduction of MTT can only occur in metabolically active cells, the level of activity is actually a measure of the viability of the cells.
(§3) Mouse fibroblast normal cell line 3T3, and prostate cancer line (PC3) were cultured separately in DMEM, supplemented with 5% of FBS, 100 IU/mL of penicillin and 100 μg/mL of streptomycin, and kept at 37°C in 5% CO2 incubator. For the preparation of cell culture, 100 μL/well of cell solution (5 x 10^4 cells/mL) was added into 96-well plate. The plate was incubated for overnight, and fresh medium was added after the removal of old medium. The test compounds were also added in different concentrations into the plate, and again incubated for 48 h. After the completion of this incubation period, 200 μL MTT (0.5 mg/mL) was added, and plate was again incubated for 4 h, after this final incubation, 100 μL of DMSO was added to each well. The level of MTT reduction to formazan was evaluated by change in absorbance at 540 nm for 3T3, and 570 nm for PC3 using a micro-plate reader (Spectra Max plus, Molecular Devices, CA, USA).

Assay [4] deals with prostate cancer (PC3) cells. The experiment in a line: MTT anti-proliferative assay, PC3 cells. Format: cell-based. As to conditions: Homo sapiens, PC-3, 48 h incubation, prostate cancer cell line, read-out: IC50 ± Standard Deviation, PC3 Cell Line. The procedure: as §1, §2, §3

Where two headings read alike, the source gives them in different places. A value given as a limit tells only on which side of the number the result lay.

T1 sequence (P07650 whole entry): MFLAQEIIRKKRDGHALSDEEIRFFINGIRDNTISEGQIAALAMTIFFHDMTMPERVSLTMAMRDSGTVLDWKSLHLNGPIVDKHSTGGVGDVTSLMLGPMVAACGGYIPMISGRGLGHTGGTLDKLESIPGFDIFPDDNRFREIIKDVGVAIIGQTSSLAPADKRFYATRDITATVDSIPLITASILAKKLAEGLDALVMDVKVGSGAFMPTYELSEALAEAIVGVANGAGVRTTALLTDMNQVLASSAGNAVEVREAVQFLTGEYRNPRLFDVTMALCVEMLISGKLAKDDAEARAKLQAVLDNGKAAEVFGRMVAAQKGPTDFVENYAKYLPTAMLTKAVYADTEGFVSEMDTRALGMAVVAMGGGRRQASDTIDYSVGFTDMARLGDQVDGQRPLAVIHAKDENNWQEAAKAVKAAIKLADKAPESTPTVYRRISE

The inhibition is how much of the control response was suppressed. Regarding `O=C(N/N=C/c1ccc(O)c(O)c1O)c1ccc(O)cc1` [Compound 5, 4-Hydroxyl-N'-[(E)-(2^′,3^′,4^′-trihydroxylphenyl)methylidene]benzohydrazide], the inhibition at 500 µM (stock) in assay [1] was determined as 26%.
Regarding `O=c1[nH]c(=O)c2cc[nH]c2[nH]1` [7-Deazaxanthine, reference compound], the inhibition in assay [1] is 99%. Further, the “Inhibition Type” value in assay [2] is recorded as “Non-competitive”.
In general, IC50 refers to the concentration needed to halve the response being measured. For the compound `O=C(N/N=C/c1cc(O)c(O)cc1O)c1ccc(O)cc1` [Compound 7, 4-Hydroxyl-N'-[(E)-(2^′,4^′,5^′-trihydroxylphenyl)methylidene]benzohydrazide], the inhibition in assay [1] stood at 99%. The IC50 is 3.8 ± 0.4 µM in assay [3] (NIH3T3, 48 h incubation) and over 30 µM in assay [4].
On to `O=C(N/N=C/c1c(O)cc(O)cc1O)c1ccc(O)cc1` [Compound 4, 4-Hydroxyl-N'-[(E)-(2^′,4^′,6^′-trihydroxylphenyl)methylidene]benzohydrazide], for which the inhibition at 500 µM (stock) in assay [1] stood at 8%.
As to `O=C(N/N=C/c1ccc(Br)cc1)c1ccc(O)cc1` [Compound 14, N'-[(E)-(4^′-Bromophenyl)methylidene]-4-hydroxylbenzohydrazide], the inhibition in assay [1] is 96.6%. Further, the “Inhibition Type” value in assay [2] was “Uncompetitive”. The IC50 in assay [3] (NIH3T3, 48 h incubation) was over 30 µM; in assay [4], over 30 µM.
For `COc1ccc(/C=N/NC(=O)c2ccc(O)cc2)cc1` [Compound 10, 4-Hydroxyl-N'-{(E)-[4^′-(methoxy)phenyl]methylidene}benzohydrazide], the inhibition in assay [1] stood at 99.8%. The IC50 in assay [3] (NIH3T3, 48 h incubation) is over 30 µM; in assay [4], over 30 µM.
Take `N=C1CCCN1Cc1nc(O)nc(O)c1Cl` [tipiracil, reference compound]: in assay [1], the inhibition is 99%.
For `O=C(N/N=C/c1ccccc1O)c1ccc(O)cc1` [Compound 1, 4-Hydroxyl-N'-[(E)-(2^′-hydroxylphenyl)methylidene]benzohydrazide], the inhibition in assay [1] was 99.6%. The IC50 turned out to be 13.1 ± 0.3 µM in assay [3] (NIH3T3, 48 h incubation) and 7.5 ± 0.4 µM in assay [4].
In the same order, the values of `COc1ccccc1/C=N/NC(=O)c1ccc(O)cc1` [Compound 12, 4-Hydroxyl-N'-{(E)-[2^′-(methoxy)phenyl]methylidene}benzohydrazide] are 99%, over 30 µM and over 30 µM.
In the case of `O=C(N/N=C/c1cccc(Cl)c1)c1ccc(O)cc1` [Compound 11, N'-[(E)-(3^′-Chlorophenyl)methylidene]-4-hydroxylbenzohydrazide], the inhibition in assay [1] amounted to 99%. Also, the IC50 in assay [3] (NIH3T3, 48 h incubation) was over 30 µM; in assay [4], over 30 µM.
As to `COc1ccc(O)c(/C=N/NC(=O)c2ccc(O)cc2)c1` [Compound 23, 4-Hydroxyl-N'-{(E)-[2^′-hydroxyl-5^′-(methoxy)phenyl]methylidene}benzo-hydrazide], the inhibition in assay [1] amounted to 99.9%. For the same compound, the IC50 in assay [3] (NIH3T3, 48 h incubation) came out at 15.3 ± 0.9 µM; in assay [4], 10.5 ± 0.5 µM.
Consider `C/C(=N\NC(=O)c1ccc(O)cc1)c1ccccc1O` [Compound 25, 4-Hydroxyl-N'-[(E)-1-(2^′-hydroxylphenyl)ethylidene]benzohydrazide], for which the inhibition in assay [1] turned out to be 25%.
With `Cc1ccccc1/C=N/NC(=O)c1ccc(O)cc1` [Compound 16, 4-Hydroxyl-N'-[(E)-(2^′-methylphenyl)methylidene]benzohydrazide], the inhibition in assay [1] came out at 99%. Further, the IC50 in assay [3] (NIH3T3, 48 h incubation) is over 30 µM; in assay [4], over 30 µM.
`C/C(=N\NC(=O)c1ccc(O)cc1)c1ccc(O)cc1O` [Compound 26, N'-[(E)-1-(2^′,4^′-Dihydroxylphenyl)ethylidene]-4-hydroxylbenzohydrazide]: in assay [1], the inhibition stood at 30%.
`C[C@@H]1C[C@@H]([C@H](O)CC2CC(=O)NC(=O)C2)C(=O)[C@@H](C)C1` [Cyclohexamide, cyclohexamide, reference compound]: in assay [3] (48 h incubation), the IC50 worked out at 0.26 ± 0.1 µM.
Regarding `O=C(N/N=C/c1cc(Br)ccc1O)c1ccc(O)cc1` [Compound 20, N'-[(E)-(5^′-Bromo-2^′-hydroxylphenyl)methylidene]-4-hydroxylbenzohydrazide], in assay [1], the inhibition at 500 µM (stock) is 38.6%.
Consider `O=C(N/N=C/c1ccc(Cl)cc1Cl)c1ccc(O)cc1` [Compound 15, N'-[(E)-(2^′,4^′-Dichlorophenyl)methylidene]-4-hydroxylbenzohydrazide], for which the inhibition at 500 µM (stock) in assay [1] was determined as 20%.
As for `COc1cccc2c1C(=O)c1c(O)c3c(c(O)c1C2=O)C[C@@](O)(C(=O)CO)C[C@@H]3O[C@H]1C[C@H](N)[C@H](O)[C@H](C)O1` [Doxorubicin, doxorubicin, reference compound], the concentration for half-maximal inhibition (IC50) in assay [4] stood at 0.91 ± 0.1 µM.
Take `O=C(N/N=C/c1cc(Cl)ccc1O)c1ccc(O)cc1` [Compound 21, N'-[(E)-(5^′-Chloro-2^′-hydroxylphenyl)methylidene]-4-hydroxylbenzohydrazide]: in assay [1], the inhibition was 12.4%.
As to `COc1ccc(/C=N/NC(=O)c2ccc(O)cc2)cc1OC` [Compound 13, N'-{(E)-[3^′,4^′-Bis(methoxy)phenyl]methylidene}-4-hydroxylbenzohydrazide], the inhibition in assay [1] turned out to be 99%. Moreover, the IC50 in assay [3] (NIH3T3, 48 h incubation) was over 30 µM; in assay [4], over 30 µM.
`O=C(N/N=C/c1ccc(O)cc1)c1ccc(O)cc1` [Compound 8, 4-Hydroxyl-N'-[(E)-(4^′-hydroxylphenyl)methylidene]benzohydrazide]: in assay [1], the inhibition came out at 99%. Also, the IC50 in assay [3] (NIH3T3, 48 h incubation) is over 30 µM; in assay [4], over 30 µM.
As for `O=C(N/N=C/c1cccc(O)c1O)c1ccc(O)cc1` [Compound 2, N'-[(E)-(2^′,3^′-Dihydroxylphenyl)methylidene]-4-hydroxylbenzohydrazide], in assay [1], the inhibition was found to be 99.9%. Moreover, the IC50 in assay [3] (NIH3T3, 48 h incubation) was determined as 23 ± 1 µM; in assay [4] it was 7.6 ± 0.4 µM.
As for `O=C(N/N=C/c1cccc(O)c1)c1ccc(O)cc1` [Compound 6, 4-Hydroxyl-N'-[(E)-(3^′-hydroxylphenyl)methylidene]benzohydrazide], the inhibition in assay [1] worked out at 99%. Also, the 50% inhibitory concentration (IC50) in assay [3] (NIH3T3, 48 h incubation) was over 30 µM; in assay [4] it was over 30 µM.
Regarding `CCOc1cccc(/C=N/NC(=O)c2ccc(O)cc2)c1O` [Compound 24, N'-{(E)-[3^′-Ethoxy-2^′-hydroxylphenyl]methylidene}-4-hydroxylbenzohydrazide], the inhibition in assay [1] worked out at 82.4%. In addition, the IC50 amounted to 9.4 ± 0.3 µM in assay [3] (NIH3T3, 48 h incubation) and 6.5 ± 0.2 µM in assay [4].
As to `COc1cccc(/C=N/NC(=O)c2ccc(O)cc2)c1O` [Compound 19, 4-Hydroxyl-N'-[(E)-(2^′-hydroxyl-3^′-methoxyphenyl)methylidene]benzohydrazide], the inhibition in assay [1] is 86.9%. The IC50 was determined as 181.5 ± 1.6 µM in assay [1] (recombinant TP expressed in E. coli, substrate thymidine, pH 7.0, 30°C, N.A. = not active, read-out: IC50 (μM ± SEM), thymidine phosphorylase inhibition); 23.6 ± 0.2 µM in assay [3] (NIH3T3, 48 h incubation); 9.6 ± 0.3 µM in assay [4].
As for `C/C(=N\NC(=O)c1ccc(O)cc1)c1cc(O)ccc1O` [Compound 28, N'-[(E)-1-(2^′,5^′-Dihydroxylphenyl)ethylidene]-4-hydroxylbenzohydrazide], the inhibition in assay [1] worked out at 99.3%. Also, the IC50 in assay [3] (NIH3T3, 48 h incubation) is 20.2 ± 0.9 µM; in assay [4], over 30 µM.
